Assay results from the supplement of paper PMC6723410.

test system: GUMC-403; assay: viability at highest tested concentration (max response) relative to DMSO (% of DMSO control); higher = less cytotoxic; details: library / dose series: MIPE library, 11-point 1:3 dilution; top concentration 11.1 µM; 48 h
Outline: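 GUMC-403 papilloma cells, derived from a patient and expanded by conditional reprogramming, were dispensed at 700/well into 1536-well plates in 5 μL F + Y medium. A pin tool delivered 23 nL of each compound across an 11-point 1:3 dilution series for 48 h. CellTiter-Glo luminescence, read on a ViewLux, was normalised so that vehicle wells equalled 100% and empty wells 0%. Values report viability at the highest tested concentration relative to vehicle control.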

Structure (SMILES)	viability
CO[C@H]1/C=C/O[C@@]2(C)Oc3c(C)c(O)c4c(O)c(c(/C=N/N5CCN(C)CC5)c(O)c4c3C2=O)NC(=O)/C(C)=C\C=C\[C@H](C)[C@H](O)[C@@H](C)[C@@H](O)[C@@H](C)[C@H](OC(C)=O)[C@@H]1C	107

same assay, conditions: library / dose series: MIPE library, 11-point 1:3 dilution; top concentration 23 µM; 48 h

Structure (SMILES)	viability
CC[C@@]1([C@@H]2O[C@@H]([C@H]3O[C@@](O)(CO)[C@H](C)C[C@@H]3C)C[C@@H]2C)CC[C@H]([C@]2(C)CC[C@]3(C[C@H](O)[C@@H](C)[C@@H]([C@@H](C)[C@@H](OC)[C@H](C)C(=O)[O-])O3)O2)O1	116

same assay, conditions: library / dose series: MIPE library, 11-point 1:3 dilution; top concentration 46.1 µM; 48 h

Structure (SMILES)	viability
OC[C@H]1O[C@H](C[C@@H]1O)N2\C=C(\I)C(=O)NC2=O	127
Cc1ccc([S+](=O)([O-])Nc2cc(Cl)ccc2C(=O)Nc2nc(-c3ccccc3)cs2)cc1	104
N#C/N=C(\NCCCCCCOc1ccc(Cl)cc1)Nc1ccncc1	115
O=C(O)CCCCC(CCSCc1ccccc1)SCc1ccccc1 (configuration not stated)	130
CCC(C1CCC(C)C(O1)C(C)C(O)C(C)C(=O)C(CC)C2OC\3(O[C@]4(CC[C@@](C)(O4)C5CC[C@@](O)(CC)C(C)O5)C(O)\C=C3)C(C)CC2C)C([O-])=O (some centres not stated)	76
Cc1ccc(-c2cc(C(F)(F)F)nn2-c2ccc([S+](N)(=O)[O-])cc2)cc1	114
Cc1cc(OCCCc2c(C(=O)O)n(Cc3cccnc3)c3c(-c4c(COc5ccc(N6CCN([S+](C)(=O)[O-])CC6)cc5)nn(C)c4C)cccc23)cc(C)c1Cl	105
N#C/C(C(=O)c1ccc(Cl)cc1Cl)=C1/NC(=O)c2ccc(Cl)cc2N1	100
c1ccc(CNc2nc(NCc3ccccc3)c3ccccc3n2)cc1	51.8
Nc1cc(N2CCCCC2)nc(N)[n+]1[O-]	91.1
C=CC[C@@H]1/C=C(\C)C[C@H](C)C[C@H](OC)[C@H]2O[C@@](O)(C(=O)C(=O)N3CCCC[C@H]3C(=O)O[C@H](/C(C)=C/[C@@H]3CC[C@@H](O)[C@H](OC)C3)[C@H](C)[C@@H](O)CC1=O)[C@H](C)C[C@@H]2OC	126
O=C(O)c1ccc2c(c1)nc(Nc1cccc(Cl)c1)c1ccncc12	88.1
CN(C[C@@H]1COCCO1)[S+]([O-])(=O)NC2=CC3=C(C=C2)\C=C/C4=C(C=C(C=N4)C5=C[N](C)N=C5)C3=O	114
O=C(c1ccc(F)c(F)c1Nc1ccc(I)cc1F)N1CC(O)([C@@H]2CCCCN2)C1	52.2
CC(C)C1NC(=O)C(NC(=O)C2=C3\N=C\4/C(=C(C)\C(=O)\C(=C4C(=O)NC5C(C)OC(=O)C(C(C)C)N(C)C(=O)CN(C)C(=O)C6CCCN6C(=O)C(NC5=O)C(C)C)N)OC3=C(C)C=C2)C(C)OC(=O)C(C(C)C)N(C)C(=O)CN(C)C(=O)C7CCCN7C1=O (configuration not stated)	12.2
CO[C@@H]1[C@@H](O)[C@H](O)[C@@H](n2c3c(Cl)cccc3c3c4c(c5c6cccc(Cl)c6[nH]c5c32)C(=O)NC4=O)O[C@H]1CO	112
CC(C)(C)OC(=O)Nc1ccc(-c2cc(C(=O)NCCCCCCC(=O)NO)no2)cc1	81.6
OC1=CC=C(C=C1)\C2=C\OC3=C(C=CC(=C3)O)C2=O	133
CCC(=O)N[C@H]1CC[C@H](C(=O)N(C)c2ccc(-c3nc4ccccc4o3)cc2)C1	84.8
CC(=O)CC(C1=CC=CC=C1)C/2=C(O)/C3=CC=CC=C3OC2=O (configuration not stated)	118
COc1ccc(CCC(=O)Nc2nc3ccc(Cl)cc3s2)cc1OC	47.9
c1ccc2c(CN3CCNCC3)cccc2c1	122
CN(C)C1=C(Br)C=C(C=C1)C\2NC3=C(\C4=C2C(=O)CC(C)(C)C4)C5=CC=CC=C5C=C3 (configuration not stated)	99.8
C[N+]1(C)[C@@H]2CC(OC(=O)C(O)(c3cccs3)c3cccs3)C[C@H]1[C@@H]1O[C@@H]12 (some centres not stated)	127
Cc1cnc(Nc2cccc(CN3CCOCC3)c2)nc1Nc1cccc([S+](=O)([O-])NC(C)(C)C)c1	101
COC1=CC=C(C=C1)C/2=C/OC3=CC(=CC=C3C2=O)O	95.7
COc1ccc2cc(-c3[nH]c(-c4ccc([S+](C)[O-])cc4)nc3-c3ccncc3)ccc2c1 (configuration not stated)	144
Cc1cc(C[S+](=O)([O-])c2ccccc2)cc(OCc2ccc(CN3CCC[C@@H]3CO)cc2)c1	116

Structure (SMILES)	viability
CC(=O)Nc1ccc(O)cc1	123
COCCCOc1ccnc(C[S+]([O-])c2nc3ccccc3[n-]2)c1C (configuration not stated)	120
C#C[C@]1(O)CC[C@H]2[C@@H]3CCc4cc(OC)ccc4[C@H]3CC[C@@]21C	88.2
COc1ccc([S+](=O)([O-])N(C(C)=O)c2ccccc2/C=C/c2cc[n+]([O-])cc2)cc1	60.2
COC(=O)Nc1nc2ccc([S+]([O-])c3ccccc3)cc2[nH]1 (configuration not stated)	95.4
CC[C@H](CC[C@@H](C)[C@H]1CC[C@H]2[C@@H]3C\C=C/4C[C@@H](O)CC[C@]4(C)[C@H]3CC[C@]12C)C(C)C	101
O=C(NCc1ccncc1)C12C[C@H]3C[C@@H](C1)CC(c1ccc(Cl)cc1)(C3)C2	108
COC1=C(OCCCN2CCOCC2)C=C3N=CC=C(OC4=CC=C(C=C4F)\C5=C\N=C(\NC6=CC=C(F)C=C6)N(C)C5=O)C3=C1	72.6
Oc1ccc(C2CCN(c3ccnc4ccccc34)CC2)cc1O	92.8
FC1=CC=C(CN2\C=C/C=C(/C(=O)N[C@@H](COC3=CC4=C(NC(=O)N4)C=C3)C5=CC=CC=C5)C2=O)C=C1F	103
CC(C)N(CC[C@H](c1ccccc1)c1cc(CO)ccc1O)C(C)C	137
NC1(Cc2ccc(Cl)cc2)CCN(c2ncnc3[nH]ccc23)CC1	62.8
N=C(CCSCc1csc(N=C(N)N)n1)N[S+](N)(=O)[O-]	124
Cn1cc(-c2ccc3nnc(C(F)(F)c4ccc5ncccc5c4)n3n2)cn1	110
CN(C)Cc1ccc(-c2nc3cccc4c3n2CCNC4=O)cc1	88.8
OC1=CC2=C(C(=O)\C=C(/O2)C3=CC=CC=C3)C(=C1O)O	114
CCC[C@H](N[C@@H](C)C(=O)N1[C@H](C(=O)O)C[C@@H]2CCCC[C@@H]21)C(=O)OCC	120
C[C@](N)(Cc1ccc(O)c(O)c1)C(=O)O	89.6
COc1cc2c(cc1OC)CN(CCc1ccc(NC(=O)c3cccc4c(=O)c5cccc(OC)c5[nH]c34)cc1)CC2	132
COC(=O)C\1=C(C)\N\C(=C(/C1C2=CC=CC3=NON=C23)C(=O)OC(C)C)C (configuration not stated)	89.7
Cc1nn(Cc2ccccc2Cl)c(C)c1CN(C)CC(O)COc1ccc(Cl)cc1 (configuration not stated)	90.9
CC1=CC=C(C=C1)\C2=N\C3=CC=C(Cl)C=C3OC2	128
Nc1nc(Nc2ccc([S+](N)(=O)[O-])cc2)nn1C(=O)c1c(F)cccc1F	111
CN1CCc2c(n(Cc3ccc(C(=O)NO)cc3)c3ccccc23)C1	107
COc1ccc2cc1Oc1ccc(cc1)C[C@H]1c3cc(c(OC)cc3CCN1C)Oc1c(OC)c(OC)cc3c1[C@H](C2)N(C)CC3	86
O=C(N[C@H](CO)[C@H](O)c1ccc([N+](=O)[O-])cc1)C(Cl)Cl	130
O=C(c1ccc(F)cc1)N1CCC[C@H](c2nc(-c3ccc(F)cc3)no2)C1	119
